Values joined by “and” are separate entries in the source; they are usually repeats but may differ in a detail not shown here. Equal entries are not always repeated. “Also recorded” adds a separate entry of the source. Residues, ends and D or L forms follow the SMILES beside them. *: point of attachment. Cbz = O=C(OCc1ccccc1)*
Assays:
[1] = tested on: P23H opsin; assay: P23H opsin degradation in HEK293 stable cells (immunoblot); format: cell-based, human; settings: for loss of P23H opsin: after 12 hours, FTI-277 50 μM, rapamycin 50 nM; for effect of inhibitor on FTI-277 induced P23H opsin degradation: in the presence of FTI-277, 3MA 10 mM, MG132 25 μM; for effect of inhibitor on P23H opsin degradation: inhibitor added at autophagy induction, amino acid depleted cells
Experimental: Wild-type and P23H opsin were expressed in HEK293 tetracycline-inducible stable cell lines. The cells were grown in Dulbecco's modified Eagle's medium containing high glucose (Invitrogen, San Diego, Calif.) supplemented with 10% heat inactivated fetal bovine serum (Sigma) with antibiotic-antimycotic solution (Invitrogen, San Diego, Calif.), blasticidin (Cayla, Toulouse, France), zeocin (Invitrogen, San Diego, Calif.) at 37 C in the presence of 5.0% CO2. Opsin synthesis in cells was induced by addition of tetracycline (1 μg/ml). Baby hamster kidney (BHK) cell lines stably expressing the wild type and ΔF508 CFTR variant with a C-terminal HA epitope (CFTR-HA) (See Sharma et al., J. Cell Biol. 2004 164(6):923-33). The cells were grown in DMEM/F12 (Invitrogen, San Diego, Calif.) 1:1 ratio with 10% FBS at 37° C. in the presence of 5.0% CO2.
Autophagy was induced in cells by incubating them in amino-acid depleted medium or treating them with rapamycin ([…]), or both. Cells were incubated under autophagy inducing conditions for two, six, or twelve hours. At the indicated time point the cells were lysed in 1% n-dodecyl-β-maltoside (DM) (Anatrace, Maumee, Ohio) in the presence of protease inhibitors (complete protease inhibitor mixture tablets (Roche Molecular Biochemicals, Mannheim, Germany) for 1 hour at 4° C. The cells were centrifuged at 36,000 rpm in a Beckman ultracentrifuge for 30 minutes at 4 C. The lysate was collected and immunoblotting was performed.
(§1) Cell lysates were electrophoresed on 10% SDS polyacrylamide gels and transferred onto Immobilon-NC (Millipore, Billerica, Mass.) nitrocellulose membranes. The membranes were incubated at room temperature for 1 hour with a commercially available blocking buffer (Li-Cor, Lincoln, Nebr.) diluted 1:1 in PBST (PBS with 0.1% triton X-100, pH 7.4), followed by a 1 hour incubation with the indicated primary antibody. The blots were washed three times for 5 minutes each in PBST, and incubated for 1 hour with a true near infrared dye, IRDye800-conjugated secondary antibody (Rockland Immunochemicals Inc., Gilbertsville, Pa.). Finally the membranes were again washed three times with PBST and scanned in an Odyssey infrared scanner (Li-Cor, Lincoln, Nebr.). Quantitations on immunoblots were performed using Licor software. Primary antibodies included antibodies to opsin, HA-tag (Covance Princeton, N.J.), mTOR, phosphorylated mTOR (Upstate Charlottesville, Va.), calnexin, hsp70 (Stressgen, Victoria, BC, CA), Bip (BD PharMingen, San Diego, Calif.) to tubulin (Sigma Chemical, St. Louis, Mo.), 1D4 (University of British Columbia), Akt, phospho-Akt, S6K, phospho-S6K, MAPK and phosphor-MAPK (Cell Signaling Technology, Beverly, Mass.).
Following tetracycline wash off, cells were treated for 0, 2, 6 and 12 hours then lysed in phosphate buffer containing 1% n-dodecyl-β-maltoside (DM) (Anatrace) in the presence of protease inhibitors (complete protease inhibitor mixture tablets; Roche Molecular Biochemicals) for 1 hour at 4° C. As a positive control for autophagy, cells were treated with rapamycin (50 nM), following tetracycline wash off. The lysates were centrifuged at 36,000 rpm in a Beckman ultracentrifuge for 10 min at 4C. The supernatant was collected and immunoblotting was performed. 3-methyladenine (3MA), which blocks autophagy (10 mM) (Sigma Chemical (St. Louis, Mo.)) and MG132 (25 μM) (Sigma Chemical (St. Louis, Mo.)) were also used.

[2] = tested on: P23H heterozygous mutant mice; assay: ERG retinal function in P23H mouse model of retinitis pigmentosa; format: in vivo; settings: rapamycin once per week from twenty-one days old; course of three months
Experimental: Mice expressing the P23H opsin protein are described by Liu et al., Journal of Cell Science 110, 2589-2597 (1997).
Heterozygous P23H transgenic mice were treated once per week with rapamycin beginning when the mice were twenty-one days old.
(§2) The mice are dark adapted twenty-four hours prior to ERG. A mix of ketamine and xylazine was used to anesthestize mice. Dosage was determined by weight. Mouse eyes were numbed with proparacaine drops and dilated with Ak-dilate. The mouse was then placed on the machine (UTAS-E 2000) a ground electrode was inserted into the hind limb, another electrode was inserted into the neck, and a pair of electrode was used to record the ERG from each eye. After getting a baseline reading, the ERG was measured at 20, 10 and 0 dB. Monthly ERG's were measured and the B-wave amplitude was determined.

[3] = tested on: Abcr heterozygous mutant mice; assay: ERG retinal function in mouse model of macular degeneration; format: in vivo; settings: rapamycin 20 mg/kg once per week intraperitoneal from four months old
Experimental: abcr+/− mice are described by Mata et al., Investigative Opthalmology and Visual Science. 2001; 42:1685-1690.
abcr+/− mice were treated with 20 mg/kg of rapamycin once per week beginning when the mice were four months old. The rapamycin was administered by intraperitoneal injection.
as §2

[4] = cited from earlier work
[5] = tested on: mTOR; assay: mTOR phosphorylation in opsin-expressing HEK293 cells (immunoblot); format: cell-based, human
Experimental: Cell lysates were electrophoresed on 10% SDS polyacrylamide gels and transferred onto Immobilon-NC (Millipore, Billerica, Mass.) nitrocellulose membranes. The membranes were incubated at room temperature for 1 hour with a commercially available blocking buffer (Li-Cor, Lincoln, Nebr.) diluted 1:1 in PBST (PBS with 0.1% triton X-100, pH 7.4), followed by a 1 hour incubation with the indicated primary antibody. The blots were washed three times for 5 minutes each in PBST, and incubated for 1 hour with a true near infrared dye, IRDye800-conjugated secondary antibody (Rockland Immunochemicals Inc., Gilbertsville, Pa.). Finally the membranes were again washed three times with PBST and scanned in an Odyssey infrared scanner (Li-Cor, Lincoln, Nebr.). Quantitations on immunoblots were performed using Licor software. […]

[6] = tested on: Bip, calnexin, calreticulin, Hsp70, Hsp90; assay: UPR/HSR chaperone levels in opsin-expressing HEK293 cells (immunoblot); format: cell-based, human; settings: FTI-277 treatment, time-dependent
Experimental: as §1
(§3) FTI-277 (Calbiochem) was used at 50 μM. […]

[7] = tested on: S6 kinase; assay: S6 kinase phosphorylation in HEK293 cells (immunoblot); format: cell-based, human; settings: within two hours of treatment
Experimental: as §1, §3

[8] = tested on: Akt; assay: Akt phosphorylation in HEK293 cells (immunoblot); format: cell-based, human; settings: FTI-277 treatment
Experimental: as §1, §3

[9] = tested on: MAPK; assay: MAPK phosphorylation in HEK293 cells (immunoblot); format: cell-based, human; settings: FTI-277 treatment
Experimental: as §1, §3

[10] = tested on: HEK293 cells expressing P23H opsin; assay: immunocolocalization of autophagosome markers Atg7 and Atg8 with P23H opsin; format: cell-based, human; settings: FTI-277 treatment versus untreated cells in complete medium
Experimental: Cells were grown on glass coverslips and fixed in 4% paraformaldehyde. Following quenching with 50 mM NH4Cl, cells were washed with PBS and incubated for 1 hour with the indicated primary antibody at room temperature. Cells were washed five times in PBS and incubated with a secondary antibody (TRITC- and FITC-conjugate) for 1 hour. The cells were washed again and mounted with Vectashield containing DAPI. Primary antibodies included antibodies to LC3, LAMP-1, Atg7 (Dr Dunn), opsin, Atg7^20, Atg8 and HA-tag. The cells were then observed using a Zeiss Axiophot microscope.
(§4) Staining with lysotracker (Molecular Probes) was also performed on live cells at 37° C. Confocal imaging was performed using the Leica TCS SP2 AOBS Spectral Confocal Microscope at 63× magnification.

[11] = tested on: HEK293 cells expressing P23H opsin; assay: lysotracker staining of lysosomal vacuoles; format: cell-based, human
Experimental: as §4

[12] = tested on: HEK293 cells expressing P23H opsin; assay: electron microscopy morphometric quantification of autophagic vacuoles (AVs); format: cell-based, human; settings: FTI-277 for two hours and six hours
Experimental: P23H opsin-expressing cells were grown on ACLAR sheets in a 24-well plate. […] Following a wash with PBS, cells were fixed with 2% paraformaldehyde, 2% glutaraldehyde in 0.1M sodium cacodylate buffer, pH 7.4 for 30 minutes at 4° C. and processed for CMPase cytochemistry as previously described (31). Morphometric quantification of AVs was done on 20 electron micrographs per condition using Image J software T-test analysis was performed and P value (two-tailed significance) under or equal to 0.05 was considered significant (marked with asterisk).

[13] = tested on: HuH7 hepatoma cells stably expressing GFP-LC3; assay: GFP-LC3 localization in HuH7 hepatoma cells (confocal); format: cell-based; settings: FTI-277 treated versus fed cells
Experimental: HuH7 hepatoma cells were stably transfected with pGFP-LC3 (Ogawa et al., Science 307(5710): 727-731, 2005) using a lipid optimization kit, the PerFect lipid (pFx-3), purchased from Invitrogen (San Diego, Calif.). PFX-3 (Invitrogen) according to manufacturer's protocols. Those colonies that grew in the presence of 0.5 mg/ml G418 were then isolated, amplified, and screened for GFP-LC3 expression by fluorescence microscopy and Western blotting.
as §4

[14] = tested on: Rheb; settings: Basso et al., 2005; cited from earlier work

## CO[C@H]1C[C@@H]2CC[C@@H](C)[C@@](O)(O2)C(=O)C(=O)N2CCCC[C@H]2C(=O)O[C@H]([C@H](C)C[C@@H]2CC[C@@H](O)[C@H](OC)C2)CC(=O)[C@H](C)/C=C(\C)[C@@H](O)[C@@H](OC)C(=O)[C@H](C)C[C@H](C)/C=C/C=C/C=C/1C [rapamycin]
[1]
  loss of P23H opsin: 70%
[2]
  retinal function (ERG): rescued retinal function; also recorded: enhances retinal function
[3]
  retinal function (ERG): rescues retinal function; also recorded: enhances retinal function
[4]
  absorption after oral administration: absorbed rapidly and completely

## Cn1cnc(N)c2ncnc1-2 [3-MA, 3-methyladenine]
[1]
  effect of inhibitor on FTI-277 induced P23H opsin degradation: prevented degradation of opsin; also recorded: inhibited P23H opsin degradation
  effect of inhibitor on P23H opsin degradation: inhibited P23H degradation

## CC(C)C[C@@H](C=O)NC(=O)[C@H](CC(C)C)NC(=O)[C@H](CC(C)C)NC(=O)OCc1ccccc1 [MG132] (Cbz-Leu-Leu-Leu-aldehyde)
[1]
  effect of inhibitor on FTI-277 induced P23H opsin degradation: did not interfere
  effect of inhibitor on P23H opsin degradation: no effect

## COC(=O)[C@H](CCSC)NC(=O)c1ccc(NC[C@@H](N)CS)cc1-c1ccccc1 [FTI-277, methyl {N-[2-phenyl-4-N[2(R)-amino-3-mercaptopropylamino]benzoyl]}-methionate]
[1]; FTI-277 at 10 μM
  degradation of P23H opsin: No effect
[1]; FTI-277 at 50 μM
  degradation of P23H opsin: time-dependent degradation
[1]
  loss of P23H opsin: 50%
[1]; fed cells treated with 10 μM or 50 μM FTI277 (FIG. 8)
  degradation of P23H rhodopsin (Western blot): induced the rapid degradation
[5]; FTI-277 in combination with amino acid and serum starvation
  dephosphorylation of mTOR: further enhanced
[5]; FTI-277 treatment, time course of twelve hours
  phosphorylation of mTor: effectively inhibited
[6]
  levels of calnexin, calreticulin, Hsp70 and Hsp90 (UPR and HSR): did not affect
[7]
  phosphorylation of S6 kinase: dramatically reduced
[8]
  stimulation of Akt phosphorylation: unaffected
[9]
  MAPK phosphorylation: slight increase
[10]
  colocalization of Atg7 and Atg8 with P23H opsin: dramatic increase
[11]
  lysosomal numbers and size (lysotracker): increase
[12]
  increase in the fractional volume of AVs compared to untreated cells: 4 to 6 fold and 6 fold
[13]
  GFP-LC3 localization: localized to numerous structures consistent with its association with autophagic vacuoles
[14]
  prenylation of Rheb: completely block

## CC1=C(/C=C/C(C)=C/C=C/C(C)=C/C=O)C(C)(C)CCC1 [11-cis retinal]
[1]; 11-cis retinal administered at the time autophagy was induced
  levels of P23H degradation: not altered
[1]; 11-cis retinal during amino acid depletion
  P23H protein degradation profile versus wild-type opsin and untreated P23H cells: intermediate degradation profile

From US20100087474A1, “MATERIALS AND METHODS FOR ENHANCED DEGRADATION OF MUTANT PROTEINS ASSOCIATED WITH HUMAN DISEASE” (UNIVERSITY OF FLORIDA, priority 2005, published 2010)
